Test results: patent US10617695B2, “Ophthalmic compositions containing alcaftadine” (Vistakon Pharmaceuticals, LLC, priority 2006, dated 2020)
“Also recorded” adds a separate entry of the source.

Tests used:
[1] = Chemical stability of alcaftadine solution in ethylene oxide sterilized LDPE bottles; format: physicochemical
Procedure: Both non-sterilized Rexam and Bunder Glas bottles were sterilized using ethylene oxide. Stability studies were initiated and ethylene oxide levels determined to be <1 ppm (under ambient conditions) using a water extraction test method (ANSI/AAMI/ISO: 10993-7) by AppTec (Marietta, Ga.).
The 2.5 mg/ml alcaftadine solution was used in this study.
The chemical stability results for alcaftadine stored in ethylene oxide sterilized Rexam and Bunder Glas bottles are summarized in Table 4.

[2] = test system: murine model of allergic conjunctivitis; experiment: Vascular leak (Evans Blue Dye Extravasation) in murine model of allergic conjunctivitis, early phase; format: in vivo, mice; settings: alcaftadine 2.5 mg/ml, 5 μL topical at 1 and 2 hours pre-challenge; p<0.05
Procedure: (§1) Alcaftadine ophthalmic solution was evaluated to determine if topical treatment could reduce early phase and late phase allergic inflammation in a murine model of allergic conjunctivitis. Evans Blue Dye Leakage was used to assess the impact on vascular permeability during the early phase inflammatory response Conjunctiva was taken at 24 hours, stained, and assessed for presence of neutrophil and eosinophil infiltration to evaluate late phase anti-inflammatory activity.
(§2) All mice were sensitized with short ragweed (SRW) in aluminum hydroxide via intraperitoneal administration (Day 0, 7, and 14) and eye drop instillation (Day 8 and 15). On Day 20, mice were again sensitized with eye drops of SRW.
(§3) On Day 27, two topical administrations of the clinical dose of alcaftadine 2.5 mg/ml or vehicle were instilled at 1 and 2 hours pre-challenge. Alcaftadine and vehicle were administered topically at a 5 μL saturating dose as treatment arms based on a randomization code. […]
(§4) Vascular leak was determined by means of Evans Blue Dye Extravasation following allergen challenge for N=6 animals except the alcaftadine treatment arm, where N=4 animals were sacrificed and tested (two animals died during the procedure). […] The numbers of eosinophils and neutrophils were determined both by light microscopy of Giemsa or H&E stained sections or by immunohistochemistry using cell specific monoclonal antibodies. […]

[3] = target: T1, human histamine H4 receptor (Homo sapiens, UniProt Q9H3N8); experiment: H4 receptor antagonist assay: shift of histamine EC50, Schild plot, in transfected SK-N-MC cells; format: cell-based
T1 construct: express a reporter gene construct and the human H4 receptor full-coding region; expressed in transfected cells; host or cells: SK-N-MC cells with a CRE-beta-galactosidase reporter
Procedure: Alcaftadine and 6,11-dihydro-11-(1-methyl-4-piperdinylidene)-5H-imidazo[2,1-b][3]benazepine-3-carboxylic acid (CAS #147083-93-0) were prepared at 10 mM in 100% dimethylsulfoxide (DMSO) for the binding assays and at 10 mM in Na/K phosphate buffer, pH 7.0, for the cellular assays. Cell pellets from SK-N-MC cells transfected with human H4 receptor were homogenized in 20 mM Tris-HCl/0.5 mM ethylendediaminetetraacetic acid (EDTA) pH 8.0 (TE buffer). Supernatants collected after centrifugation at 800 g were recentrifuged at 30,000 g for 30 min. Pellets were re-homogenized in TE buffer. […] Non-specific binding was defined with 100 μM cold histamine. […] Seven concentrations of compound were tested spanning 10^−11 to 10^−5 M with each concentration being run in triplicate. […] This assay was run twice and the results are reported as the average of the two runs. SK-N-MC cell lines were created that express a reporter gene construct and the human H4 receptor full-coding region. The reporter gene was β-galactosidase under the control of cyclic adenosine monophosphate (cAMP) responsive elements. Cells were plated in 96-well plates the night before the assay. Antagonists were added 10 min prior to the addition of histamine, which was added directly to the cell medium. Forskolin (5 μM final concentration) was added 10 min after the addition of histamine. Cells were returned to the incubator for 6 h at 37° C. The medium was then aspirated and cells were lysed with 25 μL of 0.1× assay buffer (10 mM sodium phosphate, pH 8, 0.2 mM MgSO4, 0.01 mM MnCl2) and incubated at room temperature for 10 min. […] Color was quantitated on a microplate reader at absorbance 570 nm. […]
To test whether alcaftadine or 6,11-dihydro-11-(1-methyl-4-piperdinylidene)-5H-imidazo[2,1-b][3]benazepine-3-carboxylic acid (CAS #147083-93-0) were antagonists of the H4 receptor, the ability of the compounds shift the EC50 of the histamine inhibition of forskolin-induced cAMP increases was assessed in SK-N-MC cells transfected with the human histamine H4 receptor. […]

[4] = test system: murine model of allergic conjunctivitis; experiment: Eosinophil and neutrophil recruitment 24 hours post-CAC in murine model of allergic conjunctivitis, late phase; format: in vivo, mice; settings: alcaftadine 2.5 mg/ml, 5 μL topical at 1 and 2 hours pre-challenge
Procedure: as §1, §2, §3, §4

[5] = Bunder Glas bottles, Ethylene Oxide, 5 days at 50° C.
[6] = Bunder Glas bottles, Ethylene Oxide, 14 days at 50° C.
[7] = Rexam bottles, Ethylene Oxide, 5 days at 50° C.
[8] = Rexam bottles, Ethylene Oxide, 14 days at 50° C.

- N-oxide levels in ethylene oxide sterilized Bunder Glas bottles versus gamma irradiated bottles ([1]; 14 days of storage at 50° C. under ambient light conditions): significantly lower N-oxide levels
- Alcaftadine [1, 5]: 2.46 mg/mL
- N-Oxide [1, 5]: 0.052%
- Alcaftadine [1, 6]: 2.48 mg/mL
- N-Oxide [1, 6]: 0.074%
- Alcaftadine ([1]; Glass Vials, 5 days at 50° C.): 2.48 mg/mL
- N-Oxide ([1]; Glass Vials, 5 days at 50° C.): 0.022%
- Alcaftadine ([1]; Glass Vials, 14 days at 50° C.): 2.51 mg/mL
- N-Oxide ([1]; Glass Vials, 14 days at 50° C.): 0.028%
- Alcaftadine [1, 7]: 2.50 mg/mL
- N-Oxide [1, 7]: 0.018%
- Alcaftadine [1, 8]: 2.58 mg/mL
- N-Oxide [1, 8]: 0.025%
- mode of action at the receptor ([3]; parallel and rightward shifts in the histamine dose response curves): competitive antagonist
- pA2 ([3]; x-intercept of the Schild plot): 5.6
SMILES: CN1CCC(=C2c3ccccc3CCn3c(C=O)cnc32)CC1 [Alcaftadine, 6,11-dihydro-11-(1-methyl-4-piperidinylidene)-5H-imidazo[2,1-b][3]benzazepine-3-carboxaldehyde]
- vascular leak compared to vehicle [2]: successfully preventing vascular leakage; also recorded: did significantly inhibit vascular leak
- eosinophil or neutrophil recruitment in the late phase response [4]: did not prevent eosinophil or neutrophil recruitment
- eosinophil or neutrophil recruitment in the late phase response ([4]; listed as alcaftadine): does not appear to inhibit eosinophil or neutrophil recruitment
